Where two headings read alike, the source gives them in different places.
How the values were obtained:
[1] = test system: Chinese hamster ovary cells (CHO-WBL cells); test: In vitro micronucleus assay; type: cell-based; details: 3 h with S9, 3 h without S9, 24 h without S9, overall judgment positive/negative
Text: The cell stock solution was stored in liquid nitrogen. The karyotype of each batch of cell stock solution was identified, and tests confirmed that it was free from mycoplasma contamination. The number of passages after cell cloning will not exceed 15.
Immediately before use, the S9 homogenate was thawed, and the components of the S9 metabolic activation system were mixed in the proportions shown in Table 2 below.
Dose exploration experiment: In the dose exploration experiment, 8 administration concentrations were established in each administration treatment series. For each concentration of the test substance, 1 well of cells was set up.

[2] = biological target: T1, α2-GABAA receptor (Homo sapiens, UniProt P18507+P47869); test: Whole-cell patch-clamp electrophysiological test of positive allosteric modulation, α2-GABAAR-HEK293 cells; type: cell-based; details: read-out: Positive allosteric modulation activity on α2-GABAAR
T1 construct: expressed in transfected cells
Text: (§1) An α subunit, a β subunit, and a γ subunit are essential for the formation of a complete functional GABAA receptor. […] The α1-GABAAR-HEK293 cell model simultaneously expressed the α1 subunit (protein sequence available in GenBank with an accession No.: NM_000806.5), the β3 subunit (protein sequence available in GenBank with an accession No.: NM_000814.5), and the γ2 subunit (protein sequence available in GenBank with an accession No.: NM_000816.3). The α2-GABAAR-HEK293 cell model simultaneously expressed the α2 subunit (protein sequence available in GenBank with an accession No.: NM_000807.4), the β3 subunit (protein sequence available in GenBank with an accession No.: NM_000814.5), and the γ2 subunit (protein sequence available in GenBank with an accession No.: NM_000816.3).
(§2) The above cell lines were subcultured. The α2-GABAAR-HEK293 cells were expanded for assay of the benzodiazepine (BZD) site affinity of compounds for GABAA receptors.
(§3) The positive regulation activity of the test drugs on the α1-GABAA receptor and the α2-GABAA receptor was detected by the electrophysiological method. The specific method was as follows:
(§4) Compound concentration setting: the final concentration of the compounds used for screening was 100 nM. […] The components of the extracellular solution (ECS) for electrophysiology were as follows: 150 mM NaCl, 5 mM KCl, 2.5 mM CaCl2, 1 mM MgCl2, 10 mM HEPES, and 10 mM glucose (pH 7.4); the formulation of the intracellular solution (ICS) of electrodes for electrophysiology was as follows: 140 mM CsCl, 11 mM EGTA, 10 mM HEPES, 2 mM CaCl2, 1 mM MgCl2, 4 mM MgATP, and 2 mM TEA (pH 7.3). GABA (γ-aminobutyric acid) powder was prepared into a mother liquor with pure water, which was then diluted in ECS; the compounds were first prepared into 4 mM mother liquors with dimethyl sulfoxide and then gradually diluted to corresponding concentrations in GABA-ECS. The solutions were all prepared freshly prior to the electrophysiological test.
(§5) Electrophysiological signal acquisition was performed using an EPC 10 amplifier and PatchMaster software (HEKA) or an Axon700B amplifier and Clampex software (AXON).
(§6) The recording electrode was made by pulling borosilicate glass, with an electrode resistance of 4-6 MΩ. Extracellular administration was performed using the ALA-VC-8PG™ system. A single, independently growing cell was selected. After the glass electrode formed a good seal with the cell, the membrane was ruptured to form the whole-cell configuration. The cell membrane potential was clamped at −60 mV and recorded in Gap-free mode. During the test, the extracellular solution was first applied extracellularly for about 20 s. After the baseline (Iprebaseline) stabilized, the extracellular solution was switched to GABA-ECS. At this time, the current caused by GABA (Igaba) could be detected. After about 10-20 s, when the current stabilized, the extracellular solution was switched to a mixed solution of the compound and GABA-ECS. At this point, the current caused by both the compound and GABA (Itreatment) could be detected. Finally, the solution was switched to the extracellular solution, and the test was terminated after recording for 20-40 s.
(§7) The current values at each stage were calculated based on the average value of the current after stabilization under the corresponding conditions. We defined the control current as Igaba−Iprebaseline, and the current after compound treatment as Itreatment−Iprebaseline. The allosteric modulation activity of the compounds was expressed as a percentage, calculated by the following formula: functional activity=[(Itreatment−Igaba)/(Igaba−Iprebaseline)]×100%.

[3] = biological target: T2, α1-GABAA receptor (Homo sapiens, UniProt P14867+P18507); test: Whole-cell patch-clamp electrophysiological test of positive allosteric modulation, α1-GABAAR-HEK293 cells; type: cell-based; details: read-out: Positive allosteric modulation activity on α1-GABAAR
T2 construct: expressed in transfected cells
Text: as §1, §2, §3, §4, §5, §6, §7

[4] = biological target: T1, α2-GABAA receptor; test: Radioligand (3H-flunitrazepam) competitive binding assay at the BZD site
Text: as §1, §2
The affinity of the compounds for the α2-GABAA receptor was determined by competing with ^3H-flunitrazepam (isotope ^3H-labelled flunitrazepam) for binding to the BZD site on the membrane proteins of HEK293 cells stably expressing the human α2-GABAA receptor.
Membrane preparation: The cells were suspended in 50 mM Tris-HCl buffer (pH=7.4), homogenized 10 times (20 s for each time) with a homogenizer on ice, and then centrifuged at 4° C. at 1000 g for 10 min. The supernatant was taken. The above steps were repeated. The supernatant was centrifuged (33800 g; Thermo, rotor: A27-8×50) at 4° C. for 60 min. The pellet was resuspended in Tris buffer (50 mM Tris-HCl, 10 mM MgCl2, 0.5 mM EDTA, and 10% glycerol). The protein content was determined (BCA (bicinchoninic acid) protein quantification assay based on the copper ion reduction method, with a BCA kit purchased from Pierce (Annoron (Beijing) Biotechnology Co., Ltd.)), and 1 mL aliquots were prepared and stored at −80° C.
Radioligand competitive binding assay: This assay was performed in a 200 μL system (96-well plate) containing 100 μL of cell membranes. The concentration of ^3H-flunitrazepam was 1 nM, and the concentrations of the test compounds were in the range of […]. Flumazenil was used as a control. To each low control (LC) well was added 1 μL of 2 mM flumazenil (the final concentration of 10 μM), and to each high control (HC) well was added 1 μL of dimethyl sulfoxide. The final concentration of the target membrane protein was […]. All sample stock solutions of test compounds were 10 mM solutions in dimethyl sulfoxide. All the samples were diluted to a concentration of 0.2 mM with dimethyl sulfoxide, and then subjected to a 4-fold serial dilution to give a total of 8 working concentration gradients. The 96-well plate was sealed with a plate sealing membrane and then incubated on a shaker at room temperature for 1 h. Meanwhile, a GF/C filter plate was soaked in a plate soaking buffer (0.3% PEI (polyethyleneimine, purchased from: Sigma-Aldrich, model: P314), stored at 4° C.) for at least 0.5 h. After the binding incubation was completed, the cells were harvested onto the GF/C filter plate using a cell harvester and washed 4 times with a washing buffer (50 mM Tris-HCl, pH 7.4, stored at 4° C.). After drying in an oven at 50° C. for 1 h, the dried GF/C filter plate was bottom-sealed. The residual radioactivity on the filter membrane was detected by liquid scintillation counting. Scintillation fluid was added at 50 µL/well, and then the plate was sealed. Readings were taken using Microbeta^2 (microplate counter, purchased from: PerkinElmer, model: CNLL0153). The inhibitory activity of the test samples on the binding of ^3H-flunitrazepam to the GABAA receptor membrane protein was calculated.

[5] = membranes of HEK293 cells stably expressing human α2-GABAA receptor (α2β3γ2), 1 nM 3H-flunitrazepam, Ki calculated from IC50, read-out: α2 Ki
[6] = compound 100 nM, GABA 0.10-0.11 M [sic] (about EC70.8), normalised to positive compound CVL-865 (=100%)
[7] = compound 100 nM, GABA about EC2-4, normalised to positive compound CVL-865 (=100%), negative value = reverse allosteric modulation

SMILES	Results of in vitro micronucleus assay [1]	activation at 0.1 µM [2]	activation at 0.1 µM [3]	Ki [4]	Ki [4, 5]	activation at 0.1 µM [2, 6]	activation at 0.1 µM [3, 7]
CCn1cnc2c(-c3ccc(F)c(-c4ccc(S(=O)(=O)CC)cc4OC)c3)cnnc21 [CVL-865, reference compound]	Positive	100%	100%	–	–	–	–
CCn1cnc2c(-c3ccc(F)c(-c4cn5cc(C6CC6)nc5cc4OC)c3)cnnc21 [Example 37, 4-(3-(2-Cyclopropyl-7-methoxyimidazo[1,2-a]pyridin-6-yl)-4-fluorophenyl)-7-ethyl-7H-imidazo[4,5-c]pyridazine]	Negative	79%	74%	6.39 nM	–	–	–
CCn1cnc2c(-c3ccc(F)c(-c4c(OC)ccc5nccn45)c3)cnnc21 [Example 49, 7-Ethyl-4-(4-fluoro-3-(6-methoxyimidazo[1,2-a]pyridin-5-yl)phenyl)-7H-imidazo[4,5-c]pyridazine]	–	–	–	–	16.5 nM	82%	44%
CCn1cnc2c(-c3ccc(F)c(-c4cn5cc(C)nc5cc4OC)c3)cnnc21 [Example 50, 7-Ethyl-4-(4-fluoro-3-(7-methoxy-2-methylimidazo[1,2-a]pyridin-6-yl)phenyl)-7H-imidazo[4,5-c]pyridazine]	–	103%	29%	9.89 nM	–	–	–
CCn1cnc2c(-c3ccc(F)c(-c4cn5ccnc5cc4OC)c3)cnnc21 [Example 52, 7-Ethyl-4-(4-fluoro-3-(7-methoxyimidazo[1,2-a]pyridin-6-yl)phenyl)-7H-imidazo[4,5-c]pyridazine]	–	–	–	–	8.07 nM	99%	19%
CCn1cnc2c(-c3ccc(F)c(-c4ccn5c(C)cnc5c4COC)c3)cnnc21 [Example 54, 7-Ethyl-4-(4-fluoro-3-(8-(methoxymethyl)-3-methylimidazo[1,2-a]pyridin-7-yl)phenyl)-7H-imidazo[4,5-c]pyridazine]	–	–	–	–	2.96 nM	100%	47%
CCn1cnc2c(-c3ccc(F)c(-c4ccn5c(C)nnc5c4COC)c3)cnnc21 [Example 58, 7-Ethyl-4-(4-fluoro-3-(8-(methoxymethyl)-3-methyl-[1,2,4]triazolo[4,3-a]pyridin-7-yl)phenyl)-7H-imidazo[4,5-c]pyridazine]	–	–	–	–	11.4 nM	123%	40%

— US20250163078A1, “IMIDAZOPYRIDAZINE DERIVATIVE, AND PREPARATION METHOD THEREFOR, PHARMACEUTICAL COMPOSITION THEREOF AND USE THEREOF” (SHANGHAI SIMR BIOTECHNOLOGY CO., LTD., priority 2022, published 2025)
